Results published in US10420341B2, “Herbicidal phenylpyrimidines” (BASF SE, priority 2015, dated 2019).

Columns and labels:
APESV = assay: greenhouse pre-emergence herbicidal test; assay type: in vivo, Apera spica-venti; conditions: pre-emergence method, scale from 0 to 100
How it was run: (§1)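 Damage was rated on a 0 to 100 scale, where 0 is normal growth and 100 is no emergence or full destruction of aerial parts, after 2 to 4 weeks. Treatment was applied pre-emergence, right after sowing, as an aqueous suspension or emulsion via fine nozzles.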

ECHCG [1] = assay: greenhouse pre-emergence herbicidal test; assay type: in vivo, Echinocloa crus-galli; conditions: pre-emergence method, scale from 0 to 100
How it was run: as §1

ABUTH = assay: greenhouse post-emergence herbicidal test; assay type: in vivo, Abutilon theophrasti; conditions: post-emergence method, scale from 0 to 100
Excerpt: (§2) The seeds of the test plants were sown separately for each species. For the post-emergence treatment, the test plants were first grown to a height of 3 to 15 cm, depending on the plant habit, and only then treated with the active ingredients which had been suspended or emulsified in water. For this purpose, the test plants were either sown directly and grown in the same containers, or they were first grown separately as seedlings and transplanted into the test containers a few days prior to treatment. Depending on the species, the plants were kept at 10-25° C. or 20-35° C., respectively. The test period extended over 2 to 4 weeks. During this time, the plants were tended, and their response to the individual treatments was evaluated. Evaluation was carried out using a scale from 0 to 100. 100 means no emergence of the plants, or complete destruction of at least the aerial moieties, and 0 means no damage, or normal course of growth. […] The plants used in the greenhouse experiments were of the following species: [table]

AMARE = assay: greenhouse post-emergence herbicidal test; assay type: in vivo, Amaranthus retroflexus; conditions: post-emergence method, scale from 0 to 100
Excerpt: as §2

ECHCG [2] = assay: greenhouse post-emergence herbicidal test; assay type: in vivo, Echinocloa crus-galli; conditions: post-emergence method, scale from 0 to 100
How it was run: (§3)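 Test plants were grown to 3–15 cm height, depending on habit, then sprayed post-emergence with active ingredient suspended or emulsified in water. Plants were kept at 10–25 °C or 20–35 °C by species for 2 to 4 weeks. Damage was scored 0–100, where 100 is complete destruction of aerial parts and 0 is normal growth.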

AVEFA = assay: greenhouse post-emergence herbicidal test; assay type: in vivo, Avena fatua; conditions: post-emergence method, application rate 500 g/ha, scale from 0 to 100
How it was run: as §3

POLCO = assay: greenhouse post-emergence herbicidal test; assay type: in vivo, Polygonum convolvulus; conditions: post-emergence method, application rate 500 g/ha, scale from 0 to 100
Excerpt: as §2

ALOMY = assay: greenhouse post-emergence herbicidal test; assay type: in vivo, Alopercurus myosuroides; conditions: post-emergence method, scale from 0 to 100
How it was run: as §3

CCc1ncc(-c2ccccc2OC)c(C(=O)O)n1 [example 16]
herbicidal activity against APESV (APESV; application rate 2000 g/ha): very good (a very good herbicidal activity is given at values of at least 85) | herbicidal activity against ECHCG (ECHCG [1]; application rate 2000 g/ha): very good (a very good herbicidal activity is given at values of at least 85) | herbicidal activity against ABUTH (ABUTH; application rate 2000 g/ha): very good (a very good herbicidal activity is given at values of at least 85)

CC(C)c1ncc(-c2ccccc2Cl)c(C(=O)O)n1 [example 32]
herbicidal activity against APESV (APESV; application rate 1000 g/ha): very good (a very good herbicidal activity is given at values of at least 85) | herbicidal activity against ECHCG (ECHCG [1]; application rate 1000 g/ha): very good (a very good herbicidal activity is given at values of at least 85) | herbicidal activity against ABUTH (ABUTH; application rate 1000 g/ha): very good (a very good herbicidal activity is given at values of at least 85) | herbicidal activity against AMARE (AMARE; application rate 1000 g/ha): good (A good herbicidal activity is given at values of at least 70)

COc1ccccc1-c1cnc(C(C)C)nc1C(=O)O [example 35]
herbicidal activity against APESV (APESV; application rate 1000 g/ha): very good (a very good herbicidal activity is given at values of at least 85) | herbicidal activity against ECHCG (ECHCG [1]; application rate 1000 g/ha): very good (a very good herbicidal activity is given at values of at least 85) | herbicidal activity against ABUTH (ABUTH; application rate 1000 g/ha): very good (a very good herbicidal activity is given at values of at least 85)

Cc1ccccc1-c1cnc(CC(C)C)nc1C(=O)O [example 40]
herbicidal activity against APESV (APESV; application rate 1000 g/ha): good (A good herbicidal activity is given at values of at least 70) | herbicidal activity against ABUTH (ABUTH; application rate 1000 g/ha): very good (a very good herbicidal activity is given at values of at least 85) | herbicidal activity against ECHCG (ECHCG [2]; application rate 1000 g/ha): good (A good herbicidal activity is given at values of at least 70)

CCC(C)c1ncc(-c2ccccc2C)c(C(=O)O)n1 (stereo not shown) [example 41]
herbicidal activity against APESV (APESV; application rate 1000 g/ha): very good (a very good herbicidal activity is given at values of at least 85) | herbicidal activity against ABUTH (ABUTH; application rate 1000 g/ha): very good (a very good herbicidal activity is given at values of at least 85) | herbicidal activity against ECHCG (ECHCG [2]; application rate 1000 g/ha): good (A good herbicidal activity is given at values of at least 70)

COc1ncc(-c2ccccc2Cl)c(C(=O)O)n1 [example 51]
herbicidal activity against APESV (APESV; application rate 500 g/ha): very good (a very good herbicidal activity is given at values of at least 85) | herbicidal activity against ECHCG (ECHCG [1]; application rate 500 g/ha): very good (a very good herbicidal activity is given at values of at least 85) | herbicidal activity against AVEFA (AVEFA): good (A good herbicidal activity is given at values of at least 70) | herbicidal activity against ECHCG (ECHCG [2]; application rate 500 g/ha): good (A good herbicidal activity is given at values of at least 70) | herbicidal activity against POLCO (POLCO): very good (a very good herbicidal activity is given at values of at least 85)

COc1ncc(-c2cc(C)ccc2C)c(C(=O)O)n1 [example 54]
herbicidal activity against APESV (APESV; application rate 1000 g/ha): very good (a very good herbicidal activity is given at values of at least 85) | herbicidal activity against ECHCG (ECHCG [1]; application rate 1000 g/ha): very good (a very good herbicidal activity is given at values of at least 85) | herbicidal activity against ABUTH (ABUTH; application rate 1000 g/ha): good (A good herbicidal activity is given at values of at least 70) | herbicidal activity against ALOMY (ALOMY; application rate 1000 g/ha): very good (a very good herbicidal activity is given at values of at least 85) | herbicidal activity against AMARE (AMARE; application rate 1000 g/ha): very good (a very good herbicidal activity is given at values of at least 85)

COC(=O)c1nc(OC)ncc1-c1ccccc1Cl [example 61]
herbicidal activity against APESV (APESV; application rate 500 g/ha): very good (a very good herbicidal activity is given at values of at least 85) | herbicidal activity against ECHCG (ECHCG [1]; application rate 500 g/ha): very good (a very good herbicidal activity is given at values of at least 85) | herbicidal activity against ALOMY (ALOMY; application rate 500 g/ha): good (A good herbicidal activity is given at values of at least 70) | herbicidal activity against ECHCG (ECHCG [2]; application rate 500 g/ha): good (A good herbicidal activity is given at values of at least 70) | herbicidal activity against POLCO (POLCO): very good (a very good herbicidal activity is given at values of at least 85)

CSc1ncc(-c2cccc(Cl)c2Cl)c(C(=O)O)n1 [example 90]
herbicidal activity against ABUTH (ABUTH; application rate 2000 g/ha): good (A good herbicidal activity is given at values of at least 70) | herbicidal activity against AMARE (AMARE; application rate 2000 g/ha): very good (a very good herbicidal activity is given at values of at least 85) | herbicidal activity against ECHCG (ECHCG [2]; application rate 2000 g/ha): very good (a very good herbicidal activity is given at values of at least 85)

Cc1ccc(C)c(-c2cnc(N(C)C)nc2C(=O)O)c1 [example 129]
herbicidal activity against APESV (APESV; application rate 500 g/ha): very good (a very good herbicidal activity is given at values of at least 85) | herbicidal activity against ECHCG (ECHCG [1]; application rate 500 g/ha): good (A good herbicidal activity is given at values of at least 70) | herbicidal activity against ABUTH (ABUTH; application rate 500 g/ha): good (A good herbicidal activity is given at values of at least 70)

O=C(O)c1nc(C2CC2)ncc1-c1cccc(F)c1Cl [example 150]
herbicidal activity against APESV (APESV; application rate 1000 g/ha): very good (a very good herbicidal activity is given at values of at least 85) | herbicidal activity against ECHCG (ECHCG [1]; application rate 1000 g/ha): very good (a very good herbicidal activity is given at values of at least 85) | herbicidal activity against ABUTH (ABUTH; application rate 1000 g/ha): very good (a very good herbicidal activity is given at values of at least 85) | herbicidal activity against ALOMY (ALOMY; application rate 1000 g/ha): very good (a very good herbicidal activity is given at values of at least 85)

COc1cc(C)c(-c2cnc(C3CC3)nc2C(=O)O)cc1C [example 169]
herbicidal activity against APESV (APESV; application rate 1000 g/ha): very good (a very good herbicidal activity is given at values of at least 85) | herbicidal activity against ABUTH (ABUTH; application rate 1000 g/ha): very good (a very good herbicidal activity is given at values of at least 85) | herbicidal activity against ECHCG (ECHCG [2]; application rate 1000 g/ha): good (A good herbicidal activity is given at values of at least 70)

COC(=O)c1nc(C2CC2)ncc1-c1cc(Cl)ccc1Cl [example 204]
herbicidal activity against APESV (APESV; application rate 500 g/ha): very good (a very good herbicidal activity is given at values of at least 85) | herbicidal activity against AMARE (AMARE; application rate 500 g/ha): very good (a very good herbicidal activity is given at values of at least 85) | herbicidal activity against POLCO (POLCO): very good (a very good herbicidal activity is given at values of at least 85)

COC(=O)c1nc(C2CC2)ncc1-c1cc(C)c(OC)cc1C [example 232]
herbicidal activity against APESV (APESV; application rate 1000 g/ha): very good (a very good herbicidal activity is given at values of at least 85) | herbicidal activity against ECHCG (ECHCG [1]; application rate 1000 g/ha): very good (a very good herbicidal activity is given at values of at least 85) | herbicidal activity against ABUTH (ABUTH; application rate 1000 g/ha): very good (a very good herbicidal activity is given at values of at least 85) | herbicidal activity against ECHCG (ECHCG [2]; application rate 1000 g/ha): very good (a very good herbicidal activity is given at values of at least 85)

Cc1ccccc1-c1cnc(C2CCC2)nc1C(=O)O [example 263]
herbicidal activity against APESV (APESV; application rate 1000 g/ha): good (A good herbicidal activity is given at values of at least 70) | herbicidal activity against ABUTH (ABUTH; application rate 1000 g/ha): very good (a very good herbicidal activity is given at values of at least 85) | herbicidal activity against ECHCG (ECHCG [2]; application rate 1000 g/ha): very good (a very good herbicidal activity is given at values of at least 85)

COC(=O)c1nc(C2CCC2)ncc1-c1ccccc1Cl [example 277]
herbicidal activity against APESV (APESV; application rate 500 g/ha): good (A good herbicidal activity is given at values of at least 70) | herbicidal activity against ABUTH (ABUTH; application rate 500 g/ha): very good (a very good herbicidal activity is given at values of at least 85)

CCCOc1ccc(C(F)(F)F)cc1-c1cnc(C2CC2)nc1C(=O)O [example 306]
herbicidal activity against ABUTH (ABUTH; application rate 1000 g/ha): very good (a very good herbicidal activity is given at values of at least 85)

COC(=O)c1nc(C2CC2)ncc1-c1ccccc1C(F)F [example 308]
herbicidal activity against APESV (APESV; application rate 500 g/ha): very good (a very good herbicidal activity is given at values of at least 85) | herbicidal activity against ECHCG (ECHCG [1]; application rate 500 g/ha): very good (a very good herbicidal activity is given at values of at least 85) | herbicidal activity against ALOMY (ALOMY; application rate 500 g/ha): very good (a very good herbicidal activity is given at values of at least 85) | herbicidal activity against AVEFA (AVEFA): very good (a very good herbicidal activity is given at values of at least 85) | herbicidal activity against POLCO (POLCO): very good (a very good herbicidal activity is given at values of at least 85)

O=C(O)c1nc(C2CC2)ncc1-c1ccccc1C(F)F [example 309]
herbicidal activity against APESV (APESV; application rate 500 g/ha): very good (a very good herbicidal activity is given at values of at least 85) | herbicidal activity against ECHCG (ECHCG [1]; application rate 500 g/ha): very good (a very good herbicidal activity is given at values of at least 85) | herbicidal activity against ALOMY (ALOMY; application rate 500 g/ha): very good (a very good herbicidal activity is given at values of at least 85) | herbicidal activity against AVEFA (AVEFA): very good (a very good herbicidal activity is given at values of at least 85) | herbicidal activity against POLCO (POLCO): very good (a very good herbicidal activity is given at values of at least 85)

O=C(O)c1nc(C2CC2)ncc1-c1ccccc1SC(F)(F)F [example 310]
herbicidal activity against ABUTH (ABUTH; application rate 1000 g/ha): good (A good herbicidal activity is given at values of at least 70)

O=C(O)c1ccccc1-c1cnc(C2CC2)nc1C(=O)O [example 318]
herbicidal activity against ECHCG (ECHCG [1]; application rate 2000 g/ha): very good (a very good herbicidal activity is given at values of at least 85) | herbicidal activity against ABUTH (ABUTH; application rate 2000 g/ha): very good (a very good herbicidal activity is given at values of at least 85)
